Six molecules from patent US11304929B2, “Tosylacetate based compounds and derivatives thereof as PHGDH inhibitors” (priority 2017, dated 2022) can be followed below.

Test [1] concerns the target PHGDH (Homo sapiens (Human), UniProt O43175). Briefly: 3-Phosphoglycerate Dehydrogenase (PHGDH) Fluorescence Intensity Assay, run at two NAD/3-PG ratios: PHGDH_HIGH_NAD/3-PG (250 μM NAD/500 μM 3-PG) and PHGDH_500_NAD/3-PG (500 μM NAD/500 μM 3-PG). Type of test: biochemical. Particulars: 250 μM NAD/500 μM 3-PG; read-out: IC50 (PHGDH_HIGH_NAD/3-PG).
Test [2] has as its system MDA-MB-468. Put plainly: 13C3 Serine Assay MDA-MB-468 (13C3 serine levels by LC/MS/MS). Type of test: cell-based. Particulars: Homo sapiens; MDA-MB-468 cells, 13C3 serine levels by LC/MS/MS; read-out: IC50 (13CSERINE).

Chain of PHGDH (O43175 2-533 limits assumed): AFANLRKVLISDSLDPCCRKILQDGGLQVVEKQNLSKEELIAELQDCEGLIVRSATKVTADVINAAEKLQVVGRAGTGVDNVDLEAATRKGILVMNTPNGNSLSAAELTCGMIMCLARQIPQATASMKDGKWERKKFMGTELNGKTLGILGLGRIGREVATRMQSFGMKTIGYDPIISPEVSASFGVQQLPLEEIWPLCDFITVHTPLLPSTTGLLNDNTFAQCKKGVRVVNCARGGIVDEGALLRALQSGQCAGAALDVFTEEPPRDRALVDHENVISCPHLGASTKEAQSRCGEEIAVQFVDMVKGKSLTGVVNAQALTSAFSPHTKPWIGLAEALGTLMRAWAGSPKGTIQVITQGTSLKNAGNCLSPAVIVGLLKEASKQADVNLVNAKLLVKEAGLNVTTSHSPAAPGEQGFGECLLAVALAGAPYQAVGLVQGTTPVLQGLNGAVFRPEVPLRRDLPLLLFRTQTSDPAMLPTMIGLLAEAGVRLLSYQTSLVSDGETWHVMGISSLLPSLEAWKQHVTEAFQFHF

For `Cc1cc(Cl)c2cc(C(=O)N[C@H](C)c3ccc(S(=O)(=O)CC(=O)OCC(C)C)cc3)n(C)c2c1` [Example 09-013, 2-methylpropyl 2-{4-[(1R)-1-[(4-chloro-1,6-dimethyl-1H-indol-2-yl)formamido]ethyl]benzenesulfonyl}acetate], the IC50 came to 19300 nM in test [1] and 70.1 nM in test [2].

Turning to `Cc1cc(Cl)c2cc(C(=O)N[C@H](C)c3ccc(S(=O)(=O)CC(=O)OC4CCOCC4)cc3)n(C)c2c1` [Example 09-014, oxan-4-yl 2-{4-[(1R)-1-[(4-chloro-1,6-dimethyl-1H-indol-2-yl)formamido]ethyl]benzenesulfonyl}acetate], the IC50 was found to be 1040 nM in test [1] and 14.7 nM in test [2].

In the case of `Cc1cc(Cl)c2cc(C(=O)N[C@H](C)c3ccc(S(=O)(=O)CC(=O)OCCS(C)(=O)=O)cc3)n(C)c2c1` [Example 09-020, 2-methanesulfonylethyl 2-{4-[(1R)-1-[(4-chloro-1,6-dimethyl-1H-indol-2-yl)formamido]ethyl]benzenesulfonyl}acetate], the IC50 is 54 nM in test [1] and 37.4 nM in test [2].

Turning to `CC(=O)OCOC(=O)CS(=O)(=O)c1ccc([C@@H](C)NC(=O)c2cc(-c3ccccc3)nn2C)cc1` [Example 10-003, (acetyloxy)methyl 2-{4-[(1R)-1-[(1-methyl-3-phenyl-1H-pyrazol-5-yl)formamido]ethyl]benzenesulfonyl}acetate], the IC50 was found to be 816 nM in test [1] and 23.7 nM in test [2].

For the molecule `C[C@@H](NC(=O)c1cc(-c2ccc(F)cc2)nn1C)c1ccc(S(=O)(=O)CC(=O)OCC2(C)COC2)cc1` [Example 10-006, (3-methyloxetan-3-yl)methyl 2-{4-[(1R)-1-{[3-(4-fluorophenyl)-1-methyl-1H-pyrazol-5-yl]formamido}ethyl]benzenesulfonyl}acetate], the IC50 in test [1] was 938 nM; in test [2] it was 103 nM.

Take `Cc1cc(Cl)c2cc(C(=O)N[C@H](C)c3ccc(S(=O)(=O)CC(=O)NO)cc3)n(C)c2c1` [Example 14-020, 4-chloro-N-[(1R)-1-{4-[(hydroxycarbamoyl)methanesulfonyl]phenyl}ethyl]-1,6-dimethyl-1H-indole-2-carboxamide]: the IC50 was 172 nM in test [1] and 136 nM in test [2].
